Data on five compounds can be found in ChEMBL document CHEMBL3797052 (Eur J Med Chem, 2016).

Calls of active or inactive are those of the source. No cut-off for these calls is given here.

The nature of assay [1]: Antiproliferative activity against human HCT15 cells assessed as growth inhibition after 48 hrs by sulforhodamine B assay. Type of assay: functional. Conditions: HCT-15, 48 h. On the technique in general: In SRB staining, fixed cells bind dye roughly in proportion to their protein.
Another assay has as its system EKVX. Nature of the assay: Antiproliferative activity against human EKVX cells assessed as cell growth at 10^-7 M after 48 hrs by sulforhodamine B assay. Type of assay: functional. Conditions: read-out: Activity.
Another assay concerns SK-MEL-28. Nature of the assay: Antiproliferative activity against human SK-MEL-28 cells assessed as cell growth at 10^-7 M after 48 hrs by sulforhodamine B assay. Type of assay: functional. Conditions: SK-MEL-28, 48 h, read-out: Activity.
The subject of the next assay is ACHN. Nature of the assay: Antiproliferative activity against human ACHN cells assessed as cell growth at 10^-7 M after 48 hrs by sulforhodamine B assay. It counts as functional. As to conditions: read-out: Activity.
A further assay concerns MCF7. Put plainly: Antiproliferative activity against human MCF7 cells assessed as cell growth at 10^-7 M after 48 hrs by sulforhodamine B assay. Type of assay: functional. As to conditions: MCF7, 48 h, read-out: Activity.
Assay [2] has as its target Tyrosine-protein kinase ABL1 (Homo sapiens) (UniProt P00519). Put plainly: Inhibition of human ABL1 at 10 uM measured after 40 mins by scintillation counting.
Assay [3] addresses Activin receptor type-1-like (Homo sapiens) (UniProt P37023). Nature of the assay: Inhibition of human ALK1 at 10 uM measured after 40 mins by scintillation counting.
The target of assay [4] is Aurora kinase A (Homo sapiens) (UniProt O14965). Put plainly: Inhibition of human Aurora-A at 10 uM measured after 40 mins by scintillation counting.
The target of assay [5] is Serine/threonine-protein kinase B-raf (Homo sapiens) (UniProt P15056). Put plainly: Inhibition of human BRAF at 10 uM measured after 40 mins by scintillation counting.
Assay [6] concerns the target Hepatocyte growth factor receptor (Homo sapiens) (UniProt P08581). Nature of the assay: Inhibition of human C-Met at 10 uM measured after 40 mins by scintillation counting.
Assay [7] has as its target Proto-oncogene tyrosine-protein kinase Src (Homo sapiens) (UniProt P12931). Put plainly: Inhibition of human C-Src at 10 uM measured after 40 mins by scintillation counting.
Assay [8] has as its target Epidermal growth factor receptor (Homo sapiens) (UniProt P00533). Put plainly: Inhibition of human EGFR at 10 uM measured after 40 mins by scintillation counting.
In assay [9] the target is Fibroblast growth factor receptor 3 (Homo sapiens) (UniProt P22607). Put plainly: Inhibition of human FGFR3 at 10 uM measured after 40 mins by scintillation counting.
The test system of assay [10] is Serine/threonine-protein kinase B-raf (Homo sapiens), P15056 [V600E]. Put plainly: Inhibition of BRAF V600E mutant assessed as reduction in MEK phosphorylation in human A375P cells after 24 hrs by Western blot analysis. It counts as cell-based.
Assay [11] shares this test system. Put plainly: Inhibition of BRAF V600E mutant assessed as reduction in ERK phosphorylation in human A375P cells after 24 hrs by Western blot analysis. It counts as cell-based. In general terms: Immunoblotting shows a protein as a band on a membrane.
The nature of assay [12]: Antiproliferative activity against human SNB75 cells assessed as cell growth at 10^-8 M after 48 hrs by sulforhodamine B assay. It counts as functional. Conditions: SNB-75, 48 h, read-out: Activity.
In another assay the test system is A549. Put plainly: Antiproliferative activity against human A549/ATCC cells assessed as cell growth at 10^-6 M after 48 hrs by sulforhodamine B assay. It counts as functional. As to conditions: A549, 48 h, read-out: Activity.
Assay [13] in a line: Antiproliferative activity against human SNB75 cells assessed as cell growth at 10^-6 M after 48 hrs by sulforhodamine B assay. Type of assay: functional. Conditions: SNB-75, 48 h, read-out: Activity.
A further assay concerns SR. Put plainly: Antiproliferative activity against human SR cells assessed as cell growth at 10^-4 M after 48 hrs by sulforhodamine B assay. Type of assay: functional. As to conditions: read-out: Activity.
Assay [14] is described as follows: Antiproliferative activity against human HOP62 cells assessed as cell growth at 10^-4 M after 48 hrs by sulforhodamine B assay. Type of assay: functional. Conditions: HOP-62, 48 h, read-out: Activity.
The next assay has as its system NCI-H322M. Put plainly: Antiproliferative activity against human NCI-H322M cells assessed as cell growth at 10^-4 M after 48 hrs by sulforhodamine B assay. Type of assay: functional. Conditions: read-out: Activity.
Assay [15] is described as follows: Antiproliferative activity against human COLO205 cells assessed as cell growth at 10^-4 M after 48 hrs by sulforhodamine B assay. Type of assay: functional. Conditions: COLO 205, 48 h, read-out: Activity.
The nature of assay [16]: Antiproliferative activity against human SW620 cells assessed as cell growth at 10^-4 M after 48 hrs by sulforhodamine B assay. Type of assay: functional. As to conditions: SW-620, 48 h, read-out: Activity.
Assay [17] can be described thus: Antiproliferative activity against human Caki1 cells assessed as cell growth at 10^-8 M after 48 hrs by sulforhodamine B assay. Type of assay: functional. As to conditions: CAKI-1, 48 h, read-out: Activity.
The nature of assay [18]: Antiproliferative activity against human RXF393 cells assessed as cell growth at 10^-8 M after 48 hrs by sulforhodamine B assay. Type of assay: functional. Conditions: RXF 393, 48 h, read-out: Activity.
The nature of assay [19]: Antiproliferative activity against human UACC257 cells assessed as cell growth at 10^-6 M after 48 hrs by sulforhodamine B assay. Type of assay: functional. As to conditions: UACC-257, 48 h, read-out: Activity.
A short description of assay [20]: Antiproliferative activity against human TK10 cells assessed as cell growth at 10^-6 M after 48 hrs by sulforhodamine B assay. It counts as functional. As to conditions: TK-10, 48 h, read-out: Activity.
Assay [21] is described as follows: Antiproliferative activity against human NCI-ADR-RES cells assessed as cell growth at 10^-4 M after 48 hrs by sulforhodamine B assay. Type of assay: functional. Conditions: read-out: Activity.
Assay [22] can be described thus: Antiproliferative activity against human Caki1 cells assessed as cell growth at 10^-4 M after 48 hrs by sulforhodamine B assay. Type of assay: functional. Conditions: CAKI-1, 48 h, read-out: Activity.

Serine/threonine-protein kinase B-raf (Homo sapiens), P15056 [V600E], sequence (P15056 whole entry V600E): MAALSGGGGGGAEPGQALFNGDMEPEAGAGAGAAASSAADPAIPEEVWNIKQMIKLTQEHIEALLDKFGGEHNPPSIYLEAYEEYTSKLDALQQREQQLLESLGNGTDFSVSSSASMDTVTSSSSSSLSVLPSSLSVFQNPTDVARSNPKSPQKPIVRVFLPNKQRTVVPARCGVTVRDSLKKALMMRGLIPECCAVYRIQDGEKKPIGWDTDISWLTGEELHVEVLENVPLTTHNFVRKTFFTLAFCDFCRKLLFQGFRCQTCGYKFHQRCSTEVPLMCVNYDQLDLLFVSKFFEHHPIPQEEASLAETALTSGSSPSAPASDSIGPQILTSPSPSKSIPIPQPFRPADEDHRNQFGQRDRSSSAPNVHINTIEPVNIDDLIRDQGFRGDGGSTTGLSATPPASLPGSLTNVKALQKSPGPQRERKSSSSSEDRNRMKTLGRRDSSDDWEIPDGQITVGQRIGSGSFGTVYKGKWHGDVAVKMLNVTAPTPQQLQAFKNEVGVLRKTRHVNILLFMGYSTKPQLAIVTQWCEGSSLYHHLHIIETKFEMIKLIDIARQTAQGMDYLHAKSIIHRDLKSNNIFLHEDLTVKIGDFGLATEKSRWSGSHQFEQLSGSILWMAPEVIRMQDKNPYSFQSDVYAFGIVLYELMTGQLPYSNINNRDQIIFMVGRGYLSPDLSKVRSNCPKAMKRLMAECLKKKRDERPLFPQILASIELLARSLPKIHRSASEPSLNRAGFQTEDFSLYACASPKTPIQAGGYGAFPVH
Activin receptor type-1-like (Homo sapiens), sequence (P37023 whole entry): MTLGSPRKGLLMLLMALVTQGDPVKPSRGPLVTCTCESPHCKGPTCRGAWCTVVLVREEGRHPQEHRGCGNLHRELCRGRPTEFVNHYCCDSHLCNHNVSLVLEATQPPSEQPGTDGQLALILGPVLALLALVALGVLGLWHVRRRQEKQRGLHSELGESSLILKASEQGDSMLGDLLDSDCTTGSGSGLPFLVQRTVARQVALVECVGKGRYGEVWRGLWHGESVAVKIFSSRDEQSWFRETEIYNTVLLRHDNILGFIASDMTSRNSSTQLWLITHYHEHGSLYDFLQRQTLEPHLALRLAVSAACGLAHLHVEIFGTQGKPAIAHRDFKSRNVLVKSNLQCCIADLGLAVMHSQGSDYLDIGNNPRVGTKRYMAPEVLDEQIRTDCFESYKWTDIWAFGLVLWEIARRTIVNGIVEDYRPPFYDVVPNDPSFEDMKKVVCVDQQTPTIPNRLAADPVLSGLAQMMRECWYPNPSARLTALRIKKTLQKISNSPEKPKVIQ
Serine/threonine-protein kinase B-raf (Homo sapiens), sequence (P15056 whole entry): as the sequence (P15056 whole entry V600E) above, with E600V counted along it
Hepatocyte growth factor receptor (Homo sapiens), sequence (P08581 whole entry): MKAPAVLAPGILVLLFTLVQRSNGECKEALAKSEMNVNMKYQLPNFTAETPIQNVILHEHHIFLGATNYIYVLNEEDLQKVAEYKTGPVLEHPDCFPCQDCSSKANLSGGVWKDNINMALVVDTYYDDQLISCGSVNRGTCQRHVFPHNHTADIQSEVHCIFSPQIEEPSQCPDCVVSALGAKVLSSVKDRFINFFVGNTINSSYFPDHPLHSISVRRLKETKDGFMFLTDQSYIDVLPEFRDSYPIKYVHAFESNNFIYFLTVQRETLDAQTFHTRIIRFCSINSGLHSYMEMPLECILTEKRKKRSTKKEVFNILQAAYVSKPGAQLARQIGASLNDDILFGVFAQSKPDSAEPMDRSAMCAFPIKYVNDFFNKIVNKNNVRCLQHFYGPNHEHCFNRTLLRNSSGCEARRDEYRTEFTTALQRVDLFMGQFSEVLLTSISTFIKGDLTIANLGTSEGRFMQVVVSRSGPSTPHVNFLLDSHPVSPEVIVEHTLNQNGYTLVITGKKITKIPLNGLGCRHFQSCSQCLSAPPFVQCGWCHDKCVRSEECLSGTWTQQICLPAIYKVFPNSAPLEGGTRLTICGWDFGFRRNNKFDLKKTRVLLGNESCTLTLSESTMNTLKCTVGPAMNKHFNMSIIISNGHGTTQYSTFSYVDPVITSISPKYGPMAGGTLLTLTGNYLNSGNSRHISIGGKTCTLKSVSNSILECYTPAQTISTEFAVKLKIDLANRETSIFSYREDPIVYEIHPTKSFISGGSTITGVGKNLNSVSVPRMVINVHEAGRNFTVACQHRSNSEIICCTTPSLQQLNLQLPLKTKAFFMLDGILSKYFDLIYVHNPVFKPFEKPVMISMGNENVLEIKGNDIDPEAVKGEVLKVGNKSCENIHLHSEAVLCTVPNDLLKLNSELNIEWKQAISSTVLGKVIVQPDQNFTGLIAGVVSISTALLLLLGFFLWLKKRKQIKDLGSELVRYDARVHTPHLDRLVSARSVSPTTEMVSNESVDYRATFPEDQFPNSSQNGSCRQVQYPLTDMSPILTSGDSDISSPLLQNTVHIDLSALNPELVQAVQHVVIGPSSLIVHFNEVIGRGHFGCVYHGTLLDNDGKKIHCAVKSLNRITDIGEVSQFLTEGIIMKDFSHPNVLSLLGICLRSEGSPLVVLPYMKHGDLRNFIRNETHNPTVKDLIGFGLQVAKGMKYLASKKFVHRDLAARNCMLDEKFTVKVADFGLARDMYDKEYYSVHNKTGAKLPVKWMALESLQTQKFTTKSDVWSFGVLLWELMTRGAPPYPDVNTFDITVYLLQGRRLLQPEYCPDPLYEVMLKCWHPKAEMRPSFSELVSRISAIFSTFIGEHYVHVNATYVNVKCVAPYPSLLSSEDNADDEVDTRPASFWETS
Tyrosine-protein kinase ABL1 (Homo sapiens), sequence (P00519 whole entry): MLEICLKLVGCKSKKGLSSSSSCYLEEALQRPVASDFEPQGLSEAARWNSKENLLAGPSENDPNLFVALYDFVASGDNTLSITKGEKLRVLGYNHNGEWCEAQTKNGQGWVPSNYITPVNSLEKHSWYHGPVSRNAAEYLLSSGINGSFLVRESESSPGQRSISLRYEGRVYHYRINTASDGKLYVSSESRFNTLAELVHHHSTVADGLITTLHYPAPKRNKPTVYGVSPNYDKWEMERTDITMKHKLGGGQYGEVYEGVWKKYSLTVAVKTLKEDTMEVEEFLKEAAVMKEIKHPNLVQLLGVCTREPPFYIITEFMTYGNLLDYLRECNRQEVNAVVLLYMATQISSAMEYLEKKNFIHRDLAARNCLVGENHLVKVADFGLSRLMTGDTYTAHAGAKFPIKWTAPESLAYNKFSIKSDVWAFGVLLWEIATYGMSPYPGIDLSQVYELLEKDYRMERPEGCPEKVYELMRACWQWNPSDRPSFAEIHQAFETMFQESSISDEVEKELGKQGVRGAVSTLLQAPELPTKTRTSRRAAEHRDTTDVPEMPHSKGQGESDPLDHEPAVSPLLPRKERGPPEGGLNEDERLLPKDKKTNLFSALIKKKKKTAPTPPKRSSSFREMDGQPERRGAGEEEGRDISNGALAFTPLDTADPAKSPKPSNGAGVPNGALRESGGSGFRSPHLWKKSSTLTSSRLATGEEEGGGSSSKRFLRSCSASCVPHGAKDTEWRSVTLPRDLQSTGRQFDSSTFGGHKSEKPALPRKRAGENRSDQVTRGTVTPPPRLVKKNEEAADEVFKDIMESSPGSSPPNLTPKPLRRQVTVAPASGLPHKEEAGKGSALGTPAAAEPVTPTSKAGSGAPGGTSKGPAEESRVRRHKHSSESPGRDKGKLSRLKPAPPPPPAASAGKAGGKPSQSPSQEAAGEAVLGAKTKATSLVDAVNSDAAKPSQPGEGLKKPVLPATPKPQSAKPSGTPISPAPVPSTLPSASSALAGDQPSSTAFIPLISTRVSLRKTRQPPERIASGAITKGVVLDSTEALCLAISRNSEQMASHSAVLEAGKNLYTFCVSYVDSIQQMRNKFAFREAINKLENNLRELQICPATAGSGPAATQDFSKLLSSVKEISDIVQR
Aurora kinase A (Homo sapiens), sequence (O14965 whole entry): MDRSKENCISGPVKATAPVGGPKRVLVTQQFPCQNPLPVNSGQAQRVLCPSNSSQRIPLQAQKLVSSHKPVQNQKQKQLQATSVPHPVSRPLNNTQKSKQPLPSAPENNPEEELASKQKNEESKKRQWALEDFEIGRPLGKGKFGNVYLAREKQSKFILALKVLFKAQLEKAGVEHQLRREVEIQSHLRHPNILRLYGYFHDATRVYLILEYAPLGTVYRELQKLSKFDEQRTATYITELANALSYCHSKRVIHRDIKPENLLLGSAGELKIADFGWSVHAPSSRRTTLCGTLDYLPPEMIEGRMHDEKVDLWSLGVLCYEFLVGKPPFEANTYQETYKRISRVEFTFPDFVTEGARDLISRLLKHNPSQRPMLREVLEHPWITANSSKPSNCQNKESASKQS
Proto-oncogene tyrosine-protein kinase Src (Homo sapiens), sequence (P12931 2-536 limits assumed): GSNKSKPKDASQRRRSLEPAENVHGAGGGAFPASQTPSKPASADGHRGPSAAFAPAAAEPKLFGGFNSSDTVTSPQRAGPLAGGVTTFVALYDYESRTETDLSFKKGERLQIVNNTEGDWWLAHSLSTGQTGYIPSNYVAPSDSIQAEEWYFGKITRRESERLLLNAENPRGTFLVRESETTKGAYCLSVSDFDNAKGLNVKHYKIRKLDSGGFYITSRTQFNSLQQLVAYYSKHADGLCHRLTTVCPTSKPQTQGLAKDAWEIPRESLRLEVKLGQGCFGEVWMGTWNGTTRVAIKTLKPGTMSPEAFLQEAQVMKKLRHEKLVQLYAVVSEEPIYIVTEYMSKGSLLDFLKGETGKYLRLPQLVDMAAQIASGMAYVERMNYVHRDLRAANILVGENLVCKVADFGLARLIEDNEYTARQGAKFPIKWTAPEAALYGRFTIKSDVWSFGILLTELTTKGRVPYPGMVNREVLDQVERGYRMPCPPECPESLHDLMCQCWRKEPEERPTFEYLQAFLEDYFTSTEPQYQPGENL

As to `CNC(=O)c1cc(Oc2ccc(NC(=O)Nc3ccc(Cl)c(C(F)(F)F)c3)cc2)ccn1` [SORAFENIB], in [1], the GI50 is 2.51 µM and the TGI is 12.6 µM.

As to `CNC(=O)c1cc(Oc2ccc3nc(NC(=O)Nc4cc(C(F)(F)F)cc(C(F)(F)F)c4)sc3c2)ccn1`, the growth at 0.1 µM was determined as 92% with EKVX, 96% with SK-MEL-28, 99% with ACHN and 87% with MCF7. The GI50 in assay [1] was found to be 1.5 µM. In addition, the 50% lethal concentration (LC50) in assay [1] was 7.32 µM. Further, the TGI in assay [1] turned out to be 3.31 µM. Besides, the inhibition in assay [2], in [3], in [4], in assay [5], in assay [6] and in assay [7] was less than 40% each time. The inhibition in assay [8] is less than 40%; in assay [9], less than 40%; in assay [10], “Dose-dependent effect”. Also, the inhibition entry in [11] is “Active”. The growth at 0.01 µM in [12] turned out to be 77%; in assay [17], 91%; in assay [18], 89%. The growth at 1 µM came to 68% in the assay on A549, 50% in assay [13], 59% in assay [19] and 87% in assay [20]. Besides, the growth at 100 µM is -53% in the assay with SR; -76% in assay [14]; -50% in the assay on NCI-H322M; -65% in assay [15]; -71% in assay [16]; -49% in assay [21]. The growth at 100 µM in assay [22] is -83%.

With `CNC(=O)c1cc(Oc2ccc3nc(NC(=O)Nc4ccc(Cl)c(C(F)(F)F)c4)sc3c2)ccn1`, the growth at 0.1 µM in the assay with EKVX was 94%; with SK-MEL-28 it was 92%; with ACHN it was 102%; in the assay with MCF7, 89%. Besides, in assay [1], the GI50 was determined as 1.95 µM. For the same compound, the LC50 in assay [1] was more than 100 µM. Besides, the growth at 0.01 µM in [12] was 79%; in assay [17], 87%; in assay [18], 87%. Also, the growth at 1 µM is 90% in the assay on A549, 78% in assay [13], 90% in assay [19] and 109% in assay [20]. Further, the growth at 100 µM is -11% in the assay with SR; -34% in assay [14]; 27% in the assay on NCI-H322M; 53% in assay [15]; 42% in [16]; 11% in assay [21]. Moreover, the growth at 100 µM in [22] stood at 17%.

As for `CNC(=O)c1cc(Oc2ccc3nc(NC(=O)Nc4ccc(Cl)c(Cl)c4)sc3c2)ccn1`, the growth at 0.1 µM came to 93% with EKVX, 100% in the assay with SK-MEL-28, 94% with ACHN and 89% in the assay with MCF7. In addition, the GI50 in assay [1] came to 3.71 µM. In addition, in assay [1], the LC50 was more than 100 µM. In addition, the TGI in assay [1] is more than 100 µM. For the same compound, the values for the growth at 0.01 µM in assay [12], in assay [17] and in assay [18] were 76%, 92% and 99%, respectively. In addition, the growth at 1 µM is 93% in the assay on A549, 87% in assay [13], 89% in assay [19] and 113% in [20]. For the same compound, the growth at 100 µM in the assay with SR is 50%; in assay [14], -85%; in the assay with NCI-H322M, 4%; in assay [15], 26%; in assay [16], 48%; in assay [21] it was -49%. In assay [22], the growth at 100 µM is -17%.

With `CNC(=O)c1cc(Oc2ccc3nc(NC(=O)c4cc(C(F)(F)F)cc(C(F)(F)F)c4)sc3c2)ccn1`, the growth at 0.1 µM with EKVX is 91%; in the assay with SK-MEL-28, 96%; in the assay on ACHN, 100%; in the assay on MCF7, 89%. In addition, in assay [1], the GI50 came out at 3.97 µM. In addition, the LC50 in [1] is more than 100 µM. In assay [1], the TGI is 25.1 µM. Moreover, the values for the growth at 0.01 µM in assay [12], in assay [17] and in assay [18] were 82%, 101% and 95%, respectively. Also, the growth at 1 µM with A549 amounted to 105%; in [13], 89%; in assay [19], 101%; in assay [20] it was 97%. The growth at 100 µM in the assay with SR was -23%; in assay [14] it was -71%; in the assay on NCI-H322M, -42%; in [15] it was -88%; in assay [16], -10%; in assay [21], -38%. Moreover, the growth at 100 µM in assay [22] was -63%.

Usually GI50 stands for the concentration that inhibits growth by half. The term TGI denotes the concentration at which net growth stops. By LC50 is commonly meant the concentration lethal to half of the exposed cells or organisms. Usually inhibition stands for the drop in the measured response relative to a control, in per cent.
